Values quoted from earlier work in patent US11878071B2, “Product for dyeing keratinous material, containing aminosilicone, a chromophoric compound, preservative and a fatty constituent” (Henkel AG & Co. KGaA, priority 2019, dated 2024).

Conditions: 25° C.

Compound | solubility in water
O=S(=O)([O-])c1ccc(N=Nc2c(O)ccc3ccccc23)cc1.[Na+] [Acid Orange 7, sodium salt of 4-[(2-hydroxy-1-naphthyl)azo]benzene sulphonate] | more than 7 g/L
O=C([O-])c1c(Cl)c(Cl)c(Cl)c(Cl)c1-c1c2c(Br)cc(=O)c(Br)c-2oc2c(Br)c(O)cc(Br)c12.O=C([O-])c1c(Cl)c(Cl)c(Cl)c(Cl)c1-c1c2c(Br)cc(=O)c(Br)c-2oc2c(Br)c(O)cc(Br)c12.[Na+].[Na+] [Acid Red 92, disodium salt of 3,4,5,6-tetrachloro-2-(1,4,5,8-tetrabromo-6-hydroxy-3-oxoxanthen-9-yl)benzoic acid] | greater than 10 g/L

The remaining lines, values ahead:

solubility in water | Compound
highly soluble in water | O=C([O-])C1=NN(c2ccc(S(=O)(=O)[O-])cc2)C(=O)C1N=Nc1ccc(S(=O)(=O)[O-])cc1.[Na+].[Na+].[Na+] (centres unmarked) [Acid Yellow 23, trisodium salt of 4,5-dihydro-5-oxo-1-(4-sulfophenyl)-4-((4-sulfophenyl)azo)-1H-pyrazole-3-carboxylic acid]
more than 20 % by weight | CCN(Cc1cccc(S(=O)(=O)[O-])c1)c1ccc(C(=C2C=CC(=[N+](CC)Cc3cccc(S(=O)(=O)[O-])c3)C=C2)c2ccccc2S(=O)(=O)[O-])cc1.[Na+].[Na+] [Acid Blue 9]
2500 µg/mL | Nc1cc(S(=O)(=O)[O-])cc2cc(S(=O)(=O)[O-])c(N=Nc3ccccc3)c(O)c12.[Na+].[Na+] [Acid Red 33, diantrium salt of 5-amino-4-hydroxy-3-(phenylazo)-naphthalene-2,7-disulphonate]
